Assay results from patent US12433896B2, “Deuterated analogs of etifoxine, their derivatives and uses thereof” (GABA Therapeutics Inc., priority 2015, dated 2025).
Structures can show the parent of a compound that is named as a salt.

How the values were obtained:
[1] = pharmacokinetics in male Sprague-Dawley rats after oral gavage; assay type: in vivo; conditions: PO 50 mg/kg; for Cmax / AUC(0-t): rat, male Sprague-Dawley rats, plasma, average N=3, 70/30 Saline/PEG400; for AUC(0-t): read-out: AUC0-12
Experimental: Compounds were evaluated for pharmacokinetic profiles in male Sprague-Dawley rats at Shanghai Chempartner, Shanghai, China. Etifoxine hydrochloride and the hydrochloride salt of the compound described in example 1 were dosed to Sprague-Dawley rats via oral gavage (PO). Each compound was administered at a dose of 50 mg/kg to three rats (N=3 rats/compound; total 6 rats in the study). Each compound was formulated in 70/30 Saline/PEG400 at a concentration of 5 mg/mL (10 mL/kg injection volume/rat). Blood samples were collected from each rat at 10, 20, 30, 45 minutes and 1, 2,4 and 12 hours post-dose. Blood samples were put on ice and centrifugated to obtain plasma. Plasma samples were analyzed for concentrations of the dosed compound at each time point by LC-MS/MS using an AB-Sciex API-400 mass spectrometer. The lower limit of quantitation of each compound was 1 ng/mL. Pharmacokinetic parameters were determined by non-compartmental analysis using WinNonlin 6.2 software.

[2] = liver human microsomes stability study; assay type: in vitro ADME; conditions: for half-life at 0.1 μM: human, liver microsomes
Experimental: (§1) Compounds were evaluated for liver microsome metabolic stability at Eurofins/Cerep (St. Charles, MO). […] Test compounds at a concentration of 0.1 μM were incubated for up to 60 minutes in duplicate. The microsomal protein concentration was 0.1 mg/mL. The parent compound was detected by HPLC-MS/MS analysis. The percent compound remaining was calculated by comparing the peak area of the parent compound at each time point to time zero. Half-life was estimated from the slope of the initial linear range of the logarithmic curve of parent compound remaining vs. time, assuming first order kinetics. The apparent intrinsic clearance was further calculated from the half-life value for assays with microsomes.

[3] = rat liver microsomes stability study; assay type: in vitro ADME; conditions: for half-life at 0.1 μM: rat, liver microsomes
Experimental: as §1

[4] = cited from earlier work
[5] = human liver microsomes, 0.1 μM compound, 0.1 mg/mL microsomal protein, up to 60 minutes, read-out: Half-life (minutes) Experiment 1
[6] = 0.1 μM compound, 0.1 mg/mL microsomal protein, up to 60 minutes, read-out: Half-life (minutes) Experiment 2
[7] = rats, relative to etifoxine hydrochloride
[8] = same conditions, different lot of human liver microsomes, read-out: average half-life

CCNC1=Nc2ccc(Cl)cc2C(C)(c2ccccc2)O1 (stereo not drawn) [Etifoxine hydrochloride, 6-chloro-2-(ethylamino)-4-methyl-4-phenyl-4H-3,1-benzoxazine, reference compound]
Cmax [1]: 1140 ng/mL | AUC(0-t) [1]: 3380 ng·h/mL

CCNC1=Nc2ccc(Cl)cc2C(C)(c2ccccc2)O1 (stereo not drawn) [Etifoxine, 6-chloro-2-(ethylamino)-4-methyl-4-phenyl-4H-3,1-benzoxazine]
Half-life (minutes) Experiment 2 ([2]; human liver microsomes, 0.1 μM compound, 0.1 mg/mL microsomal protein, up to 60 minutes): 21.9 min | half-life at 0.1 μM [2, 5]: 23 min | Half-life (minutes) Experiment 1 ([3]; 0.1 μM compound, 0.1 mg/mL microsomal protein, up to 60 minutes): 7.7 min | half-life at 0.1 μM [3, 6]: 7.4 min | half-life in humans [4]: 240 to 360 min

[2H]C([2H])([2H])C([2H])([2H])NC1=Nc2ccc(Cl)cc2C(C)(c2ccccc2)O1 (stereo not drawn) [Example 1 hydrochloride, 6-chloro-N-(ethyl-d5)-4-methyl-4-phenyl-4H-3,1-benzoxazin-2-amine]
AUC0-12 greater than etifoxine hydrochloride [1, 7]: 2.5 times | Cmax greater than etifoxine hydrochloride [1, 7]: 1.7 times | Cmax [1]: 1930 ng/mL | AUC(0-t) [1]: 8340 ng·h/mL

[2H]C([2H])([2H])C([2H])([2H])NC1=Nc2ccc(Cl)cc2C(C)(c2ccccc2)O1 (stereo not drawn) [Example 1, 6-chloro-N-(ethyl-d5)-4-methyl-4-phenyl-4H-3,1-benzoxazin-2-amine]
half-life longer than that of etifoxine ([2]; human liver microsomes, relative to etifoxine): about 86% | half-life at 0.1 μM [2, 5]: 39.7 min | half-life at 0.1 μM ([2]; human liver microsomes, 0.1 μM compound, 0.1 mg/mL microsomal protein, up to 60 minutes, read-out: Half-life (minutes) Experiment 2): 41.8 min | half-life at 0.1 μM ([2]; human liver microsomes, average of experiments 1 and 2, read-out: Half-life (minutes) Average): 41 min | half-life at 0.1 μM ([3]; 0.1 μM compound, 0.1 mg/mL microsomal protein, up to 60 minutes, read-out: Half-life (minutes) Experiment 1): 13.8 min | half-life at 0.1 μM [3, 6]: 13.8 min | half-life at 0.1 μM ([3]; average of experiments 1 and 2, read-out: Half-life (minutes) Average): 14 min | half-life longer than that of etifoxine ([3]; relative to etifoxine): about 75%

[2H]c1c([2H])c([2H])c(C2(C)OC(NCC)=Nc3ccc(Cl)cc32)c([2H])c1[2H] (stereo not drawn) [Example 6, 6-chloro-N-ethyl-4-methyl-4-(phenyl-d5)-4H-3,1-benzoxazin-2-amine]
half-life at 0.1 μM [2, 8]: 18 min

[2H]C([2H])([2H])C1(c2ccccc2)OC(NCC)=Nc2ccc(Cl)cc21 (stereo not drawn) [Example 7, 6-chloro-N-ethyl-4-(methyl-d3)-4-phenyl-4H-3,1-benzoxazin-2-amine]
half-life at 0.1 μM [2, 8]: 18 min
